Assay results as given in PMC9686928, “10-mer and 9-mer WALK Peptides with Both Antibacterial and Anti-Inflammatory Activities” (Antibiotics, 2022).
Where no end group is shown, it is not given here.

What was measured:
[1] = tested on: two Gram-positive and two Gram-negative bacterial strains; test: Antimicrobial assay, MICs over the four strains (geometric mean); assay type: cell-based, B. subtilis, S. aureus, E. coli, S. dysentariae; conditions: for GM, geometric mean of MICs: geometric mean of the MICs against the four strains
Protocol: (§1) The antimicrobial activity of each peptide was assessed against four strains, including two Gram-positive (Bacillus subtilis ATCC 6633 and Staphylococcus aureus ATCC 6538p) and two Gram-negative bacteria (Escherichia coli ATCC 25922 and Shigella dysentariae ATCC 9752) cultured in Luria-Bertani broth media. Antibacterial susceptibility was determined as the MIC value, which was measured using the standard broth microdilution method as described previously. […] Two conventional antibiotics, ampicillin and kanamycin, were used as controls to confirm antibiotic susceptibility. The tests were performed in triplicate, and the MIC values that were reproduced twice or thrice in the three independent measurements were employed to calculate the GM value.

human red blood cells = conditions: for MHC, minimal hemolytic concentration: lowest concentration showing 5% or more hemolysis, human red blood cells 10% v/v in PBS, 1 h, 1–64 μg/mL, A550, relative to 0.2% Triton X-100, triplicate
Protocol: Briefly, suspensions of human red blood cells (10% v/v in PBS) were treated for 1 h with various concentrations (1–64 μg/mL, two-fold serial dilutions) of peptides, followed by measurement of the absorbance of the supernatant at 550 nm. The relative attenuation was determined as the percentage of hemolysis compared to that of the blood suspension treated with 0.2% Triton X-100. The tests were performed in triplicate, and the average values of three independent measurements were recorded.

[2] = tested on: Bacillus subtilis ATCC 6633; test: microbe, parasite or virus in culture; assay type: cell-based; conditions: Gram-positive; broth microdilution, Luria-Bertani broth, 1–64 μg/mL two-fold serial dilutions; lowest concentration that completely inhibited growth; triplicate
Protocol: as §1

[3] = tested on: Escherichia coli ATCC 25922; test: microbe, parasite or virus in culture; assay type: cell-based; conditions: Gram-negative; broth microdilution, Luria-Bertani broth, 1–64 μg/mL two-fold serial dilutions; triplicate
Protocol: as §1

[4] = tested on: Shigella dysentariae ATCC 9752; test: microbe, parasite or virus in culture; assay type: cell-based; conditions: Gram-negative; broth microdilution, Luria-Bertani broth, 1–64 μg/mL two-fold serial dilutions; triplicate
Protocol: as §1

[5] = tested on: Staphylococcus aureus ATCC 6538p; test: microbe, parasite or virus in culture; assay type: cell-based; conditions: Gram-positive; broth microdilution, Luria-Bertani broth, 1–64 μg/mL two-fold serial dilutions; triplicate
Protocol: as §1

[6] = tested on: LPS-stimulated RAW264.7 cells; test: Nitric oxide (NO) production, Griess reaction assay; assay type: cell-based, murine; conditions: LPS 100 ng/mL 16 h, compared with omiganan and WALK155.03 (8 μM)
Protocol: (§2) The macrophage cells were seeded (3 × 10^4 cells/well) and incubated in 96-well plates for 24 h, followed by pretreatments with the WALK peptides at designated concentrations for 5 min and subsequent stimulation with 100 ng/mL of LPS for 16 h. The nitrite concentration in the culture medium was determined using the Griess reaction assay. Briefly, the culture supernatant (100 μL) was mixed with an equal volume of Griess reagent (1% sulfanilamide, 0.1% N-1-naphthyl ethylenediamine) and incubated for 5 min. The absorbance of the resulting chromophoric azo-derivative molecules was measured at 550 nm using a microplate reader with a fresh culture medium as a blank. The amount of nitrite in each sample was determined using a standard curve generated using a range of dilutions of sodium nitrite solutions.

[7] = tested on: iNOS, COX-2 and pro-IL-1β in LPS-stimulated RAW264.7 cells; test: Immunoblot analysis of pro-inflammatory mediators; assay type: cell-based, murine; conditions: peptide pretreatment 5 min, LPS 100 ng/mL 16 h, Western blot
Protocol: (§3) Figure 5 Anti-inflammatory effects of WALK244.04 peptide in Raw264.7 cells. The cells were pretreated with the peptide at indicated concentrations for 5 min, followed by stimulation with LPS (100 ng/mL) to induce inflammatory responses. (A) iNOS, COX-2, and pro-IL-1β expression levels were estimated by Western blot analysis after 16 h of LPS treatment. (B) The mRNA expression of IL-1β, IL-6, and TNF-α was determined by quantitative real-time PCR upon 3 h of stimulation with LPS. […] (C) The phosphorylation of STAT1 and TBK1 was examined by Western blot analysis at different time points after the LPS treatment.
as §3, with “Figure 6” for “Figure 5”, “of WALK243.04” for “of WALK244.04”, “PCR after” for “PCR upon”, “was analyzed” for “was examined”, “after” for “after the”
The cells were lysed using a RIPA buffer (iNtRON) containing protease and phosphatase inhibitor cocktails. The cell lysates were resolved using 10% SDS-PAGE and transferred to nitrocellulose membranes, which were blocked for 1 h at room temperature (approximately 23 °C) using phosphate-buffered saline with 0.01% Tween-20 (PBST, Merck Korea, Seoul, Korea) containing 10% fat-free dried milk. The blocked membranes were then incubated overnight with primary antibodies at 4 °C, followed by further incubation with horseradish peroxidase-conjugated secondary antibodies for 1 h at room temperature. The membranes were developed using the enhanced chemiluminescence (ECL) detection kit (Advansta, San Jose, CA, USA) and visualized using a luminescent image analyzer (Amersham imager 680, Cytiva Korea, Incheon, Korea).

RAW264.7 cells = conditions: at the concentrations tested, 16 h
Protocol: (§4) Macrophage cells seeded in 96-well cell culture plates at a density of 3 × 10^4 cells/well were incubated for 24 h, followed by treatment with LPS or individual WALK peptides and subsequent incubation for 16 h. Cell viability was then assessed by the conventional MTT assay. Briefly, the medium in each well was replaced with 100 μL of RPMI medium containing MTT (500 μg/mL). After 2 h of incubation, the medium was discarded and the insoluble formazan in each well was dissolved in 100 μL of DMSO with shaking. The absorbance of the solution at 550 nm was measured using a spectrophotometric microplate reader to determine the percentage of cell viability relative to that of control cells.

J774A.1 cells = conditions: peptides 8, 4 and 2 μM, 16 h
Protocol: (A) Cytotoxicity was assessed using the MTT assay. The cells were treated with lipopolysaccharides (LPS, 100 ng/mL) or peptides (8–2 μM, two-fold serial dilutions) for 16 h, followed by estimating the cell viability as the percentage of surviving cells compared to that of the control cells.
as §4

[8] = tested on: LPS-stimulated J774A.1 cells; test: Nitric oxide (NO) production, Griess reaction assay; assay type: cell-based, murine; conditions: LPS 100 ng/mL 16 h
Protocol: NT, non-treated; LPS, lipopolysaccharides. (A) Cytotoxicity was assessed using the MTT assay. […] (B) Anti-inflammatory potential deduced by NO assay.
as §2

[9] = tested on: phosphorylation of STAT1 and TBK1 in LPS-stimulated RAW264.7 cells; test: Immunoblot analysis of TRIF-dependent signaling; assay type: cell-based, murine; conditions: Western blot
Protocol: as §3
TRIF-dependent signaling, which is triggered by association with internalized TLR4 upon stimulation by LPS, is known to be mediated by the phosphorylation of the downstream kinase TANK binding kinase-1 (TBK-1) to produce type-I interferons. These interferons induce the expression of downstream target genes via the phosphorylation of the transcription factor signal transducer and the activator of transcription-1 (STAT-1).
The cells were lysed using a RIPA buffer (iNtRON) containing protease and phosphatase inhibitor cocktails. […]

[10] = tested on: IL-1β, IL-6 and TNF-α mRNA in LPS-stimulated RAW264.7 cells; test: Quantitative real-time PCR of pro-inflammatory cytokines; assay type: cell-based, murine; conditions: LPS 100 ng/mL 3 h, real-time qPCR
Protocol: as §3
Figure 6 Anti-inflammatory effects of WALK243.04 peptide in Raw264.7 cells. […] (B) The mRNA expression of IL-1β, IL-6, and TNF-α was determined by quantitative real-time PCR after 3 h of stimulation with LPS. […] (C) The phosphorylation of STAT1 and TBK1 was analyzed by Western blot analysis at different time points after LPS treatment.
The cells were stimulated with LPS (100 ng/mL) for 3 h in the presence or absence of peptide samples, and the total RNA was extracted using a HiGene™ Total RNA Prep Kit (BIOFACT, Daejeon, Korea). cDNA was synthesized from 500 ng of total RNA using a SuperiorScript III cDNA synthesis kit (Enzynomics, Daejeon, Korea). […] The resulting 2^−ΔΔCt value for each group was used to calculate the relative expression ratio of the detected mRNA.

Row | Substance | GM, geometric mean of MICs [1] [µg/mL] | MHC, minimal hemolytic concentration (human red blood cells) [µg/mL] | MIC, B. subtilis [2] [µg/mL] | MIC, E. coli [3] [µg/mL] | MIC, S. dysentariae [4] [µg/mL] | MIC, S. aureus [5] [µg/mL] | NO inhibitory activity [6] | COX-2 and pro-IL-1β expression [7] | iNOS expression [7] | cytotoxicity (MTT assay) (RAW264.7 cells) | cytotoxicity (MTT assay) (J774A.1 cells) | MIC values against the strains tested ([1]; against both Gram-positive and Gram-negative bacterial strains, summary) | hemolytic activity (human red blood cells; at concentrations under 64 μg/mL, human erythrocytes) | NO inhibition at 8 μM ([8]; peptide 8 μM) | inhibitory effect against NO production ([8]; peptides 8, 4 and 2 μM, pretreatment 5 min, nitrite by Griess) | TBK-1 phosphorylation ([9]; after 1 h of LPS treatment) | STAT-1 phosphorylation ([9]; after 4 h of LPS treatment) | mRNA expression of IL-1β, IL-6 and TNF-α [10]
1 | LLKWLKKWL-NH2 [WALK243.04] | 4.0 | 64 | 4 | 4 | 4 | 4 | superior NO inhibition compared to other positive controls | less potent or weaker than those of WALK244.04 | less potent or weaker than those of WALK244.04 | did not demonstrate significant cytotoxicity |  |  |  |  |  |  |  | 
2 | LKWLKWLLK-NH2 [WALK243.06] | 2.8 | 32 | 2 | 2 | 8 | 2 |  |  |  | did not demonstrate significant cytotoxicity |  |  |  |  |  |  |  | 
3 | LLKWLKKWLK-NH2 [WALK244.04] | 4.8 | 64 | 4 | 4 | 8 | 4 | most potent NO inhibitory activity | downregulation | substantial downregulation |  | no significant cytotoxicity | approximately 4 μg/mL | no significant hemolytic activity | near-complete NO inhibition | dose-dependent inhibitory effect | attenuated | strong inhibition | effectively suppressed
